Measured values taken from the kinase profiling compilation of Christmann-Franck et al. (2016).

Key:
Assay in all cases: radiometric filter-binding kinase assay
[1] = system: AKT1 (human), P31749 [S473D]; conditions: compound 10.0 µM; ATP 5 µM
AURKC (human) = AURKC (human) (UniProt Q9UQB9); conditions: ATP 5 µM
CAMKK2 (human) = CAMKK2 (human) (UniProt Q96RR4); conditions: compound 10.0 µM; ATP 20 µM
CHEK2 (human) = CHEK2 (human) (UniProt O96017); conditions: compound 10.0 µM; ATP 20 µM
CSK (human) = CSK (human) (UniProt P41240); conditions: compound 1.0 µM; ATP 20 µM
CSNK1D (human) = CSNK1D (human) (UniProt P48730); conditions: compound 10.0 µM; ATP 20 µM
CaMK1 (human) = CaMK1 (human) (UniProt Q14012); conditions: ATP 50 µM
DYRK2 (human) = DYRK2 (human) (UniProt Q92630); conditions: ATP 50 µM
Chain of DYRK2 (human) (Q92630 whole entry, looked up): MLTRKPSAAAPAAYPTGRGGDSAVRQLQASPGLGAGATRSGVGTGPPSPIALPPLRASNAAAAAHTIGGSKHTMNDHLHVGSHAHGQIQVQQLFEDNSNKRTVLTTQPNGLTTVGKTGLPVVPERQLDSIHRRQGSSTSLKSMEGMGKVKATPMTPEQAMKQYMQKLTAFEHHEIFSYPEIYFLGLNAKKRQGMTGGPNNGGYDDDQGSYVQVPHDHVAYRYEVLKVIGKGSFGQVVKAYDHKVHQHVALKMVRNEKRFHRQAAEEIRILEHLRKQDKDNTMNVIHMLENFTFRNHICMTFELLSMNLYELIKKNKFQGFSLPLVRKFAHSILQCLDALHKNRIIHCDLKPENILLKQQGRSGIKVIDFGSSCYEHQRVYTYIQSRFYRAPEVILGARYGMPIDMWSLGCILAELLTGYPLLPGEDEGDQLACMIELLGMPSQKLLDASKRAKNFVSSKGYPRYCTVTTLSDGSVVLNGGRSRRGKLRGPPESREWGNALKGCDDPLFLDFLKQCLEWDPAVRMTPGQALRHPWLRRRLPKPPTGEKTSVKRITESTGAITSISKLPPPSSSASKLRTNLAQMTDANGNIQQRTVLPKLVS

IKBKB (human) = IKBKB (human) (UniProt O14920); conditions: compound 10.0 µM; ATP 5 µM
LCK (mouse) = conditions: ATP 50 µM, accession and sequence are those of the human protein
MAP2K1 (human) = MAP2K1 (human) (UniProt Q02750); conditions: compound 1.0 µM; ATP 5 µM
MAPK10 (human) = MAPK10 (human) (UniProt P53779); conditions: ATP 50 µM
MAPK15 (human) = MAPK15 (human) (UniProt Q8TD08); conditions: compound 10.0 µM; ATP 5 µM
MAPK9 (human) = MAPK9 (human) (UniProt P45984); conditions: compound 1.0 µM; ATP 20 µM
MAPKAPK2 (human) = MAPKAPK2 (human) (UniProt P49137); conditions: ATP 20 µM
MAPKAPK3 (human) = MAPKAPK3 (human) (UniProt Q16644); conditions: ATP 20 µM
MAPKAPK5 (human) = MAPKAPK5 (human) (UniProt Q8IW41); conditions: ATP 20 µM
Chain of MAPKAPK5 (human) (Q8IW41 whole entry, looked up): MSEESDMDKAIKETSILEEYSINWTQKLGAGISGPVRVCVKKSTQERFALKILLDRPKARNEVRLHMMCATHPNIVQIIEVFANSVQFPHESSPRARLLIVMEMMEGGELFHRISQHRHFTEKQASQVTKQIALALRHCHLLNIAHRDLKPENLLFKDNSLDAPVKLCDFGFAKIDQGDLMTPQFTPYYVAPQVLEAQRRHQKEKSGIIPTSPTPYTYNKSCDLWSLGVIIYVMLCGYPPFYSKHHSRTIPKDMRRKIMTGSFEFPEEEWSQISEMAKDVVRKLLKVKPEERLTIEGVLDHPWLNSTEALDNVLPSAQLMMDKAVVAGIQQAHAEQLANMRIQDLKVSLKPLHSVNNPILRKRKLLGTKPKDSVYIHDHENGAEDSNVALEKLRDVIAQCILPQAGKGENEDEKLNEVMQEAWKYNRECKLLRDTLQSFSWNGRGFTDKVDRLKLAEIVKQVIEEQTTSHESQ

MELK (human) = MELK (human) (UniProt Q14680); conditions: ATP 50 µM
MKNK2 (human) = MKNK2 (human) (UniProt Q9HBH9); conditions: compound 10.0 µM; ATP 50 µM
NEK6 (human) = NEK6 (human) (UniProt Q9HC98); conditions: compound 10.0 µM; ATP 50 µM
NEK7 (human) = NEK7 (human) (UniProt Q8TDX7); conditions: compound 1.0 µM; ATP 20 µM
PAK6 (human) = PAK6 (human) (UniProt Q9NQU5); conditions: ATP 20 µM
Chain of PAK6 (human) (Q9NQU5 whole entry, looked up): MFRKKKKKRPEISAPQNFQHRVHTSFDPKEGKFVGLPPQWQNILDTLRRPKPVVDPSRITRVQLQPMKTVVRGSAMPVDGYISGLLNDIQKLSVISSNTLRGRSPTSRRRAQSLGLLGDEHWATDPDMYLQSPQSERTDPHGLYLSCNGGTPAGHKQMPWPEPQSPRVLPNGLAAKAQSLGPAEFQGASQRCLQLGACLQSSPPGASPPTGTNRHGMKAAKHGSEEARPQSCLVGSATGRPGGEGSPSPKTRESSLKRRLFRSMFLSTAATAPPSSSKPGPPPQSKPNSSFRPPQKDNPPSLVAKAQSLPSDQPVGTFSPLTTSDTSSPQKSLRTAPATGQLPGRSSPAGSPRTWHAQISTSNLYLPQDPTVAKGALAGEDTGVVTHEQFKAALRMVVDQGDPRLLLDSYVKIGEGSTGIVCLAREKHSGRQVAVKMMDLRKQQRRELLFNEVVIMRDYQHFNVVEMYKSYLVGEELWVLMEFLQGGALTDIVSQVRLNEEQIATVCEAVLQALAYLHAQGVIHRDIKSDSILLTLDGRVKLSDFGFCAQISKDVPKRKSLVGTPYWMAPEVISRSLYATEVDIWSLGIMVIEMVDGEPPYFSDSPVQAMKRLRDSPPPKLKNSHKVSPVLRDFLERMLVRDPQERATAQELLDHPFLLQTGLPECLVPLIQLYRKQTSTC

PAK7 (human) = PAK7 (human) (UniProt Q9P286); conditions: ATP 20 µM
Chain of PAK7 (human) (Q9P286 whole entry, looked up): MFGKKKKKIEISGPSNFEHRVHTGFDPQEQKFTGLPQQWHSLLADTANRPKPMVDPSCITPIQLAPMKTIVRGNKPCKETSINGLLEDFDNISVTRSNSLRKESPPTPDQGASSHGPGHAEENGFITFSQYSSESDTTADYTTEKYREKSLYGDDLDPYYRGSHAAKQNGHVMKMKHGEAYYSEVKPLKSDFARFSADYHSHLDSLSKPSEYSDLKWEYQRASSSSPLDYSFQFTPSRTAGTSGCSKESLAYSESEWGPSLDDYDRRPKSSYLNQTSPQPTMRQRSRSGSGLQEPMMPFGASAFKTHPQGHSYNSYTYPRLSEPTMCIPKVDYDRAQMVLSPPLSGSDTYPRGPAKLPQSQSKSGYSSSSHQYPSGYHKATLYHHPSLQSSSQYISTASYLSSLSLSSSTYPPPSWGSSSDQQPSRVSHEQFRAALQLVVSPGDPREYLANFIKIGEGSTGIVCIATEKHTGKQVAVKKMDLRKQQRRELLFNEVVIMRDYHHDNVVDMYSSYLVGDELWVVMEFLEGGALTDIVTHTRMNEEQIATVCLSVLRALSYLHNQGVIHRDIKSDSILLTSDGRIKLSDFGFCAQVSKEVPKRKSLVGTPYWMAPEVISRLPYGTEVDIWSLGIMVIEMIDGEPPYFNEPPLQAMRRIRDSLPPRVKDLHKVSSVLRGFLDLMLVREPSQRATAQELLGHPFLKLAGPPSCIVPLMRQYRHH

PDPK1 (human) = PDPK1 (human) (UniProt O15530)
Chain of PDPK1 (human) (O15530 whole entry, looked up): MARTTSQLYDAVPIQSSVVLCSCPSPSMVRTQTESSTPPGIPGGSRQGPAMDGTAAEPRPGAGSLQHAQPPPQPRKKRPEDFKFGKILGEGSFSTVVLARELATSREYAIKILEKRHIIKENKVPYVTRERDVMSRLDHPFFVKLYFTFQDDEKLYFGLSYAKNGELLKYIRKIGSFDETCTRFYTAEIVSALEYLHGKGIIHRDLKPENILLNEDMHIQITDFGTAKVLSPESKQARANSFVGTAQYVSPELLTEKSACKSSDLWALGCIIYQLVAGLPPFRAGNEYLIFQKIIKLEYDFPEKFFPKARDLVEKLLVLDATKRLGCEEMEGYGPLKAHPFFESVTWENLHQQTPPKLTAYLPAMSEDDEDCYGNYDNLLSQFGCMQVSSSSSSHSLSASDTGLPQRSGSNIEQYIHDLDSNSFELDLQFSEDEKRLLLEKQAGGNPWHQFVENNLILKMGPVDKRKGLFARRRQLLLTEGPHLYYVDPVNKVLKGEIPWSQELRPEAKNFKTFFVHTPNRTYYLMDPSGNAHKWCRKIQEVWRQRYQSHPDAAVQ

PIM2 (human) = PIM2 (human) (UniProt Q9P1W9); conditions: ATP 5 µM
Chain of PIM2 (human) (Q9P1W9 whole entry, looked up): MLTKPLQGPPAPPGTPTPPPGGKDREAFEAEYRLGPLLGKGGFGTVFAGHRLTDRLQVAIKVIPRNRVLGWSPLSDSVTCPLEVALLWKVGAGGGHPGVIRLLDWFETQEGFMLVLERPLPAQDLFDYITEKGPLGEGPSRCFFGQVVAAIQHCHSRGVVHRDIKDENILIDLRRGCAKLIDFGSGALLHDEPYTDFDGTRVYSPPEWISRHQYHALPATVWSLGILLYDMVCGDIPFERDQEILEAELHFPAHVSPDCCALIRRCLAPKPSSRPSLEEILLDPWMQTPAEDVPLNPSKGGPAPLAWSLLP

PIM3 (human) = PIM3 (human) (UniProt Q86V86); conditions: compound 10.0 µM; ATP 20 µM
PLK1 (human) = PLK1 (human) (UniProt P53350); conditions: ATP 5 µM
Chain of PLK1 (human) (P53350 whole entry, looked up): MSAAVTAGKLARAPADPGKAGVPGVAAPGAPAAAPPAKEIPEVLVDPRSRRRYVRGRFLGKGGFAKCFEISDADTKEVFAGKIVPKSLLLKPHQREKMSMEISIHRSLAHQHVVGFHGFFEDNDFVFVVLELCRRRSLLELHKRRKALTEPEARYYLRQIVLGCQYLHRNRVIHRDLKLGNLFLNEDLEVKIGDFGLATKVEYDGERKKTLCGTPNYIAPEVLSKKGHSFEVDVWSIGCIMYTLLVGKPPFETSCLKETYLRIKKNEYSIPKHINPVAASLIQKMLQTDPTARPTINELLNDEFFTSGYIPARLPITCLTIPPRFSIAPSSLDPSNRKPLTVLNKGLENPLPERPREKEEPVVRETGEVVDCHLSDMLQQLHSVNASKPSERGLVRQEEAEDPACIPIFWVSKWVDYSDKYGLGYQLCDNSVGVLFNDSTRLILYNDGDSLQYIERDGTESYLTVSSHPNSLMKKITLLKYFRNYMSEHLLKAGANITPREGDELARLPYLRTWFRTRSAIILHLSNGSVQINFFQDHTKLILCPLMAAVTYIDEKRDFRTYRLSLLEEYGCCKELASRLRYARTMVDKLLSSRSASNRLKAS

PRKCG (human) = PRKCG (human) (UniProt P05129); conditions: ATP 5 µM
ROCK2 (human) = ROCK2 (human) (UniProt O75116); conditions: compound 10.0 µM; ATP 20 µM
RPS6KA1 KD1 KD2 (human) = RPS6KA1 KD1 KD2 (human) (UniProt Q15418); conditions: ATP 50 µM
RPS6KA3 KD1 KD2 (human) = RPS6KA3 KD1 KD2 (human) (UniProt P51812); conditions: ATP 50 µM
RPS6KA5 KD1 KD2 (human) = RPS6KA5 KD1 KD2 (human) (UniProt O75582); conditions: compound 1.0 µM; ATP 20 µM
STK3 (human) = STK3 (human) (UniProt Q13188); conditions: compound 10.0 µM; ATP 20 µM

Chain of AURKC (human) (Q9UQB9 whole entry, looked up): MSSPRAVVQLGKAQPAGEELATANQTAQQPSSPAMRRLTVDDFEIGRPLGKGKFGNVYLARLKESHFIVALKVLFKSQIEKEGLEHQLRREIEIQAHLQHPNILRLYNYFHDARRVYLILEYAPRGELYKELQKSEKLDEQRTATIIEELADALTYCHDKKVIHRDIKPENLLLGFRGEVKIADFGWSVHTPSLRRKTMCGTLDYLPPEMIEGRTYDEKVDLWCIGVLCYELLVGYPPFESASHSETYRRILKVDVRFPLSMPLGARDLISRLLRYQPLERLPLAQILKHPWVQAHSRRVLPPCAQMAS

CC(C)(N)c1ccc(-c2nc3ccccc3nc2-c2ccccc2)cc1
residual activity [1]: 64%
residual activity (AURKC (human); compound 1.0 µM): 75%
residual activity (AURKC (human); compound 10.0 µM): 66%
residual activity (CAMKK2 (human)): 108%
residual activity (CHEK2 (human)): 83%
residual activity (CSK (human)): 87%
residual activity (CSNK1D (human)): 111%
residual activity (CaMK1 (human); compound 1.0 µM): 43%
residual activity (CaMK1 (human); compound 10.0 µM): 3%
residual activity (DYRK2 (human); compound 1.0 µM): 113%
residual activity (DYRK2 (human); compound 10.0 µM): 118%
residual activity (IKBKB (human)): 90%
residual activity (LCK (mouse); compound 1.0 µM): 84%
residual activity (LCK (mouse); compound 10.0 µM): 65%
residual activity (MAP2K1 (human)): 91%
residual activity (MAPK10 (human); compound 1.0 µM): 88%
residual activity (MAPK10 (human); compound 10.0 µM): 80%
residual activity (MAPK15 (human)): 71%
residual activity (MAPK9 (human)): 105%
residual activity (MAPKAPK2 (human); compound 1.0 µM): 84%
residual activity (MAPKAPK2 (human); compound 10.0 µM): 60%
residual activity (MAPKAPK3 (human); compound 1.0 µM): 86%
residual activity (MAPKAPK3 (human); compound 10.0 µM): 71%
residual activity (MAPKAPK5 (human); compound 1.0 µM): 85%
residual activity (MAPKAPK5 (human); compound 10.0 µM): 79%
residual activity (MELK (human); compound 1.0 µM): 80%
residual activity (MELK (human); compound 10.0 µM): 68%
residual activity (MKNK2 (human)): 80%
residual activity (NEK6 (human)): 75%
residual activity (NEK7 (human)): 91%
residual activity (PAK6 (human); compound 1.0 µM): 116%
residual activity (PAK6 (human); compound 10.0 µM): 92%
residual activity (PAK7 (human); compound 1.0 µM): 96%
residual activity (PAK7 (human); compound 10.0 µM): 61%
residual activity (PDPK1 (human); compound 1.0 µM, ATP 20 µM): 96%
residual activity (PDPK1 (human); compound 1.0 µM, ATP 50 µM): 76%
residual activity (PDPK1 (human); compound 10.0 µM, ATP 20 µM): 95%
residual activity (PIM2 (human); compound 1.0 µM): 88%
residual activity (PIM2 (human); compound 10.0 µM): 89%
residual activity (PIM3 (human)): 60%
residual activity (PLK1 (human); compound 1.0 µM): 79%
residual activity (PLK1 (human); compound 10.0 µM): 90%
residual activity (PRKCG (human); compound 1.0 µM): 105%
residual activity (PRKCG (human); compound 10.0 µM): 96%
residual activity (ROCK2 (human)): 92%
residual activity (RPS6KA1 KD1 KD2 (human); compound 1.0 µM): 98%
residual activity (RPS6KA1 KD1 KD2 (human); compound 10.0 µM): 67%
residual activity (RPS6KA3 KD1 KD2 (human); compound 1.0 µM): 80%
residual activity (RPS6KA3 KD1 KD2 (human); compound 10.0 µM): 74%
residual activity (RPS6KA5 KD1 KD2 (human)): 81%
residual activity (STK3 (human)): 78%
